{
  "source": "patent US20210038579A1",
  "about": "“Treatment Of Patients With Classic Fabry Disease” (Amicus Therapeutics, Inc., priority 2018, published 2021)",
  "experiment_in_all_cases": "HEK assay: α-Gal A activity in HEK-293 cell lysate with migalastat",
  "format_in_all_cases": "cell-based",
  "key": {"[1]": {"biological_target": "T1, α-Gal A mutant form p.Phe 295Cys (c.884 T > G) (Homo sapiens, UniProt P06280, F295C)", "T1 construct": "expressed in transfected cells; host or cells: HEK-293", "T1 sequence (P06280 32-429 F295C)": "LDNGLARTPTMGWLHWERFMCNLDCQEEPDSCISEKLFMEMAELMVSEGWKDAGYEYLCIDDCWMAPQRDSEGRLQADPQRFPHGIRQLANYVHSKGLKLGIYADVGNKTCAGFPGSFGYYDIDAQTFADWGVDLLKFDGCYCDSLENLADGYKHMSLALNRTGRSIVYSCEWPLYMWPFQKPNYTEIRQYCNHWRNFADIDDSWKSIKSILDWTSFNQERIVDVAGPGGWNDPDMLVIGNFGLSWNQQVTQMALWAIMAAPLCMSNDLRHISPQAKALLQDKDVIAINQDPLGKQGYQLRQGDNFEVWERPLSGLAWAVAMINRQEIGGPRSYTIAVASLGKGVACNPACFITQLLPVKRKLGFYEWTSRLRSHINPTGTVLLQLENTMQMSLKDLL", "experimental": "(§1) Such mutations are also referred to herein as “HEK assay amenable” mutations.\n(§2) In this assay, cDNA constructs are created. The corresponding α-Gal A mutant forms are transiently expressed in HEK-293 cells. Cells are then incubated±migalastat (17 nM to 1 mM) for 4 to 5 days. After, α-Gal A levels are measured in cell lysates using a synthetic fluorogenic substrate (4-MU-α-Gal) or by western blot. This has been done for known disease-causing missense or small in-frame insertion/deletion mutations."}, "[2]": {"biological_target": "T2, α-Gal A mutant form p.Gly183Asp (c.548 G > A) (Homo sapiens, UniProt P06280, G183D)", "T2 construct": "expressed in transfected cells; host or cells: HEK-293", "T2 sequence (P06280 32-429 G183D)": "T1 sequence (P06280 32-429 F295C) with G152D, C264F", "experimental": "as §1, §2"}, "[3]": {"biological_target": "T3, α-Gal A mutant form p.Ile253Thr (c.758 T > C) (Homo sapiens, UniProt P06280, I253T)", "T3 construct": "expressed in transfected cells; host or cells: HEK-293", "T3 sequence (P06280 32-429 I253T)": "T1 sequence (P06280 32-429 F295C) with I222T, C264F", "experimental": "as §1, §2"}, "[4]": {"biological_target": "T4, α-Gal A mutant form p.Arg301Gln (c.902 G > A) (Homo sapiens, UniProt P06280, R301Q)", "T4 construct": "expressed in transfected cells; host or cells: HEK-293", "T4 sequence (P06280 32-429 R301Q)": "T1 sequence (P06280 32-429 F295C) with C264F, R270Q", "experimental": "as §1, §2"}, "[5]": {"biological_target": "T5, α-Gal A mutant form p.Gly260Ala (c.779 G > C) (Homo sapiens, UniProt P06280, G260A)", "T5 construct": "expressed in transfected cells; host or cells: HEK-293", "T5 sequence (P06280 32-429 G260A)": "T1 sequence (P06280 32-429 F295C) with G229A, C264F", "experimental": "as §1, §2"}, "[6]": {"conditions": "+10 μM migalastat, HEK-293 cell lysate, mean ± SEM, n = 20"}, "[7]": {"conditions": "HEK293, 10 μM migalastat minus baseline, read-out: Absolute increase at 10 μM (% WT)"}},
  "note": "Substitutions are numbered along the chain they refer to. Values joined by “and” are separate entries in the source; they are usually repeats but may differ in a detail not shown here. Identical values can stand only once.",
  "data": [
    {"smiles": "OC[C@H]1NC[C@H](O)[C@@H](O)[C@H]1O", "note": "[migalastat]", "values": [
      {"measurement": "α-Gal A activity at 10 μM (fold over baseline)", "setting": "[1]; 10 μM migalastat", "value": 4.22, "unit": "fold over baseline"},
      {"measurement": "+Migalastat α-Gal A activity", "setting": "[1]; [6]", "value": "5051 ± 190", "unit": "nmol/mg/h"},
      {"measurement": "+Migalastat α-Gal A activity % WT", "setting": "[1]; [6]", "value": "14.5 ± 0.6", "unit": "% WT"},
      {"measurement": "activation at 10 µM", "setting": "[1]; [7]", "value": 11.1, "unit": "%"},
      {"measurement": "α-Gal A activity at 10 μM (fold over baseline)", "setting": "[2]; 10 μM migalastat", "value": 29.31, "unit": "fold over baseline"},
      {"measurement": "+Migalastat α-Gal A activity", "setting": "[2]; [6]", "value": "6074 ± 212", "unit": "nmol/mg/h"},
      {"measurement": "+Migalastat α-Gal A activity % WT", "setting": "[2]; [6]", "value": "19.1 ± 1.0 % WT and 19.1 ± 10 % WT"},
      {"measurement": "activation at 10 µM", "setting": "[2]; [7]", "value": 18.4, "unit": "%"},
      {"measurement": "α-Gal A activity at 10 μM (fold over baseline)", "setting": "[3]; 10 μM migalastat", "value": 2.07, "unit": "fold over baseline"},
      {"measurement": "+Migalastat α-Gal A activity", "setting": "[3]; [6]", "value": "23417 ± 1077", "unit": "nmol/mg/h"},
      {"measurement": "+Migalastat α-Gal A activity % WT", "setting": "[3]; [6]", "value": "80.2 ± 5.9", "unit": "% WT"},
      {"measurement": "activation at 10 µM", "setting": "[3]; [7]", "value": 41.3, "unit": "%"},
      {"measurement": "α-Gal A activity at 10 μM (fold over baseline)", "setting": "[4]; 10 μM migalastat", "value": 8.12, "unit": "fold over baseline"},
      {"measurement": "+Migalastat α-Gal A activity", "setting": "[4]; [6]", "value": "15547 ± 353", "unit": "nmol/mg/h"},
      {"measurement": "+Migalastat α-Gal A activity % WT", "setting": "[4]; [6]", "value": "44.5 ± 1.0", "unit": "% WT"},
      {"measurement": "activation at 10 µM", "setting": "[4]; [7]", "value": 39, "unit": "%"},
      {"measurement": "α-Gal A activity at 10 μM (fold over baseline)", "setting": "[5]; 10 μM migalastat", "value": 4.84, "unit": "fold over baseline"},
      {"measurement": "+Migalastat α-Gal A activity", "setting": "[5]; [6]", "value": "10749 ± 403", "unit": "nmol/mg/h"},
      {"measurement": "+Migalastat α-Gal A activity % WT", "setting": "[5]; [6]", "value": "37.4 ± 3.1", "unit": "% WT"},
      {"measurement": "activation at 10 µM", "setting": "[5]; [7]", "value": 29.9, "unit": "%"}
    ]}
  ]
}
